Measured values taken from paper PMC9344462 (Journal of Medicinal Chemistry, 2022).

Columns and labels:
[1] = molecular target: full-length PknG with natural substrate GarA (Mycobacterium tuberculosis, UniProt P9WI73); assay: Kinase Glo Plus luminescent end point inhibition assay; type: biochemical; settings: tethered docking compounds assayed at 40 μM
PknGΔTPRΔ73 mutant I292G = PknGΔTPRΔ73 mutant I292G (Mycobacterium tuberculosis, UniProt P9WI73, I292G); type: binding; settings: 100 µM
PknGΔTPRΔ73 mutant Y234L = PknGΔTPRΔ73 mutant Y234L (Mycobacterium tuberculosis, UniProt P9WI73, Y234L); type: binding; settings: 100 µM
PknGΔTPRΔ73 mutant V235P = PknGΔTPRΔ73 mutant V235P (Mycobacterium tuberculosis, UniProt P9WI73, V235P); type: binding; settings: 100 µM

Row | Compound | kinase activity [1] | shift in the melting temperature (PknGΔTPRΔ73 mutant I292G) | shift in the melting temperature (PknGΔTPRΔ73 mutant Y234L) | shift in the melting temperature (PknGΔTPRΔ73 mutant V235P)
1 | CC(C)c1ccc(C(=O)c2c(N)c(C(N)=O)c3ccccn23)cc1 [T1] | considerably diminished kinase activity | – | – | –
2 | CCN1CCCC1CNC(=O)Nc1sc2c(c1C(N)=O)CCCC2 (stereo not drawn) [T3] | considerably diminished kinase activity | – | – | –
3 | NC(=O)c1c(N)c(C(=O)c2ccc(F)cc2)n2ccccc12 [B1] | – | no shift | no shift | no shift
4 | NC(=O)c1c(NC(=O)NCC2CCCO2)sc2c1CCCC2 (stereo not drawn) [T2] | considerably diminished kinase activity | – | – | –
